This is an account of results in ChEMBL document CHEMBL1159319, “Deoxyartemisinin derivatives from photooxygenation of anhydrodeoxydihydroartemisinin and their cytotoxic evaluation” (2002).

Converted amounts (≈) assume the structure as drawn.

Holding throughout (type): functional
Holding throughout (details): read-out: ED50 (the source's name)

In one experiment the test system is HL-60. Kind of experiment: Cytotoxicity against human HL-60(TB) cells.
In a further experiment the test system is CCRF-CEM. Kind of experiment: Cytotoxicity against human CCRF-CEM cells.
In the next experiment the test system is K562. Kind of experiment: Cytotoxicity against human K562 cells.
The test system of the next experiment is RPMI-8226. Kind of experiment: Cytotoxicity against human RPMI8226 cells.
The next experiment has as its system SR. Kind of experiment: Cytotoxicity against human SR cells.
In the next experiment the test system is IGROV-1. Kind of experiment: Cytotoxicity against human IGROV1 cells.
The test system of a further experiment is HOP-92. Kind of experiment: Cytotoxicity against human HOP92 cells.
The subject of a further experiment is MCF7. Kind of experiment: Cytotoxicity against human MCF7 cells.
The test system of another experiment is BT-549. Kind of experiment: Cytotoxicity against human BT549 cells.

In the case of `C=C1C(=O)O[C@@H]2O[C@@]3(C)CC[C@H]4[C@H](C)CC[C@@H]1[C@@]24O3` [DEOXYARTEMISITENE], the EC50 with HL-60 is 0.69 µg/mL (≈ 2.61 µM); with CCRF-CEM, 0.92 µg/mL (≈ 3.48 µM); in the experiment with K562, 0.94 µg/mL (≈ 3.56 µM); in the experiment on RPMI-8226 it was 1.68 µg/mL (≈ 6.36 µM); with SR it was 1.89 µg/mL (≈ 7.15 µM); in the experiment on IGROV-1, 0.89 µg/mL (≈ 3.37 µM). Besides, the EC50 with HOP-92 was found to be 0.92 µg/mL (≈ 3.48 µM); with MCF7 it was 1.46 µg/mL (≈ 5.52 µM); in the experiment with BT-549, 1.97 µg/mL (≈ 7.45 µM).
